Data: PubChem BioAssay AID256 (DTP/NCI, 2004)
Several values for one entry are separate records, joined by “and”; a condition that tells them apart may be missing. Equal entries are not always repeated. Toxic doses and inconclusive results are not listed. How the source made its calls: active means survival T/C of 150% or more; inactive means T/C below 125% in these data. Residues, ends and D or L forms follow the SMILES beside them. *: point of attachment. Cbz = O=C(OCc1ccccc1)*; OBn = c1ccc(CO*)cc1

Tested on: CD2F1 mice, L1210 leukemia ip, survival T/C
Assay: NCI In Vivo Anticancer Drug Screen. Data for tumor model L1210 Leukemia (intraperitoneal) in CD2F1 (CDF1) mice
Conditions: higher = longer survival
Outline: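 Activity against a transplanted murine tumor was judged by comparing the compound group with a vehicle group. The outcome in the treated animals was divided by that in the controls.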

[1] = endpoint: mean survival time, dose: 25.0 mg/kg/injection, schedule: Q04DX003 (ip), vehicle: saline
[2] = endpoint: mean survival time, dose: 100.0 mg/kg/injection, schedule: Q01DX009 (ip), vehicle: saline with Tween-80
[3] = endpoint: mean survival time, dose: 100.0 mg/kg/injection, schedule: Q04DX003 (ip), vehicle: saline with Tween-80
[4] = endpoint: mean survival time, dose: 100.0 mg/kg/injection, schedule: Q04DX003 (ip), vehicle: saline
[5] = endpoint: mean survival time, dose: 100.0 mg/kg/injection, schedule: Q01DX009 (ip), vehicle: Klucel (hydroxypropylcellulose) (HPC)
[6] = endpoint: mean survival time, dose: 200.0 mg/kg/injection, schedule: Q01DX009 (ip), vehicle: Klucel (hydroxypropylcellulose) (HPC)
[7] = endpoint: mean survival time, dose: 400.0 mg/kg/injection, schedule: Q01DX009 (ip), vehicle: Klucel (hydroxypropylcellulose) (HPC)

Measured: T/C

CSc1nc(NC2OC(CO)C(O)C(O)C2O)c(Br)c(=O)[nH]1 (stereo not drawn)
inactive: endpoint: median survival time, dose: 12.5 mg/kg/injection, schedule: Q01DX005 (ip), vehicle: saline with Tween-80 101 % of control | endpoint: median survival time, dose: 25.0 mg/kg/injection, schedule: Q01DX005 (ip), vehicle: saline with Tween-80 101 % of control | endpoint: median survival time, dose: 50.0 mg/kg/injection, schedule: Q01DX005 (ip), vehicle: saline with Tween-80 100 % of control | endpoint: median survival time, dose: 100.0 mg/kg/injection, schedule: Q01DX005 (ip), vehicle: saline with Tween-80 101 % of control | endpoint: median survival time, dose: 200.0 mg/kg/injection, schedule: Q01DX005 (ip), vehicle: saline with Tween-80 100 % of control

CCN(CC)CC#CCCCCN(CC)CC
inactive: endpoint: mean survival time, dose: 25.0 mg/kg/injection, schedule: Q01DX009 (ip), vehicle: saline with Tween-80 101 % of control | [1] 96 % of control | endpoint: mean survival time, dose: 50.0 mg/kg/injection, schedule: Q01DX009 (ip), vehicle: saline with Tween-80 95 % of control | endpoint: mean survival time, dose: 50.0 mg/kg/injection, schedule: Q04DX003 (ip), vehicle: saline 94 % of control | [2] 93 % of control | [3] 94 % of control | [4] 94 % of control

O=C(CNC(=O)OCc1ccccc1)NCC(=O)OCc1ccccc1 (Cbz-Gly-Gly-OBn)
inactive: [2] 93 % of control | [3] 96 % of control | endpoint: mean survival time, dose: 200.0 mg/kg/injection, schedule: Q01DX009 (ip), vehicle: saline with Tween-80 92 % of control | endpoint: mean survival time, dose: 200.0 mg/kg/injection, schedule: Q04DX003 (ip), vehicle: saline with Tween-80 93 % of control | endpoint: mean survival time, dose: 400.0 mg/kg/injection, schedule: Q01DX009 (ip), vehicle: saline with Tween-80 89 % of control | endpoint: mean survival time, dose: 400.0 mg/kg/injection, schedule: Q04DX003 (ip), vehicle: saline with Tween-80 93 % of control

OC(c1ccccc1)c1ccccn1 (stereo not drawn)
inactive: endpoint: mean survival time, dose: 100.0 mg/kg/injection, schedule: Q04DX003 (ip), vehicle: other 93 % of control | endpoint: mean survival time, dose: 200.0 mg/kg/injection, schedule: Q04DX003 (ip), vehicle: other 98 % of control | endpoint: mean survival time, dose: 400.0 mg/kg/injection, schedule: Q04DX003 (ip), vehicle: other 98 % of control

CCCCCCCCOc1nccc(N)n1
inactive: endpoint: mean survival time, dose: 18.75 mg/kg/injection, schedule: Q01DX001 (ip), vehicle: saline with Tween-80 105 % of control | endpoint: mean survival time, dose: 37.5 mg/kg/injection, schedule: Q01DX001 (ip), vehicle: saline with Tween-80 100 % of control | endpoint: mean survival time, dose: 75.0 mg/kg/injection, schedule: Q01DX001 (ip), vehicle: saline with Tween-80 94 % of control

CC(C)(C)C(=O)O
inactive: endpoint: mean survival time, dose: 100.0 mg/kg/injection, schedule: Q01DX009 (ip), vehicle: saline 107 % of control | [4] 89 % of control | endpoint: mean survival time, dose: 200.0 mg/kg/injection, schedule: Q01DX009 (ip), vehicle: saline 94 % of control | endpoint: mean survival time, dose: 200.0 mg/kg/injection, schedule: Q04DX003 (ip), vehicle: saline 92 % of control | endpoint: mean survival time, dose: 400.0 mg/kg/injection, schedule: Q04DX003 (ip), vehicle: saline 93 % of control

S=C(NCNC(=S)c1ccncc1)c1ccncc1
inactive: endpoint: median survival time, dose: 25.0 mg/kg/injection, schedule: Q01DX009 (ip), vehicle: saline with Tween-80 102 % of control | endpoint: median survival time, dose: 50.0 mg/kg/injection, schedule: Q01DX009 (ip), vehicle: saline with Tween-80 103 % of control | endpoint: median survival time, dose: 100.0 mg/kg/injection, schedule: Q01DX009 (ip), vehicle: saline with Tween-80 106 % of control | endpoint: median survival time, dose: 200.0 mg/kg/injection, schedule: Q01DX009 (ip), vehicle: saline with Tween-80 104 % of control | endpoint: median survival time, dose: 400.0 mg/kg/injection, schedule: Q01DX009 (ip), vehicle: saline with Tween-80 104 % of control

C=C[Si]12OCCN(CCO1)CCO2
inactive: endpoint: mean survival time, dose: 12.5 mg/kg/injection, schedule: Q01DX009 (ip), vehicle: Klucel (hydroxypropylcellulose) (HPC) 97 % of control and 105 % of control | endpoint: mean survival time, dose: 25.0 mg/kg/injection, schedule: Q01DX009 (ip), vehicle: Klucel (hydroxypropylcellulose) (HPC) 95 % of control and 96 % of control | endpoint: mean survival time, dose: 50.0 mg/kg/injection, schedule: Q01DX009 (ip), vehicle: Klucel (hydroxypropylcellulose) (HPC) 92 % of control and 100 % of control | [5] 92 % of control and 94 % of control | [6] 88 % of control and 94 % of control | [7] 88 % of control and 95 % of control

CCNC1(c2ccccc2)CCCCC1
inactive: [1] 105 % of control

CC(=O)Nc1nc(Br)c2ccccc2c1-c1ccc(N(CCO)CCO)cc1
inactive: endpoint: mean survival time, dose: 25.0 mg/kg/injection, schedule: Q04DX003 (ip), vehicle: DMSO 90 % of control | endpoint: mean survival time, dose: 50.0 mg/kg/injection, schedule: Q04DX003 (ip), vehicle: DMSO 90 % of control | endpoint: mean survival time, dose: 100.0 mg/kg/injection, schedule: Q04DX003 (ip), vehicle: DMSO 94 % of control | endpoint: mean survival time, dose: 200.0 mg/kg/injection, schedule: Q04DX003 (ip), vehicle: DMSO 87 % of control

O=C(N/N=C/c1ccccc1)c1ccc(Cl)cc1
inactive: [5] 94 % of control | [6] 97 % of control | [7] 101 % of control
